Results published in patent publication EP0257993B1, “Nucleic acid fragment encoding herbicide resistant plant acetolactate synthase” (priority 1986, dated 1988).
Like-named read-outs stand apart in the source and are kept apart here.

Tests used:
tobacco callus [1] = details: Kanamycin, 50 mg/L
Experimental: For plant cell transformations, standard aseptic techniques for the manipulation of sterile media and axenic plant/bacterial cultures were followed, including the use of a laminar flow hood for all transfers. Recipes for media are given in Example VI. Potted tobacco plants for leaf disk infections were grown in a growth chamber maintained for a 12 hr. 24°C day, 12 hr, 20°C night cycle, with approximately 80% relative humidity, under mixed cool white fluorescent and incandescent lights. Tobacco leaf disk infections were carried out essentially by the method of Horsch et al. (1985) Science 227, 1229.
Young leaves, not fully expanded and approximately 4-6 inches in length, were harvested with a scalpel from approximately 4-6 week old tobacco plants (Nicotiana tabacum var. Xanthi). The leaves were surface sterilized for 30 minutes by submerging them in approximately 500 ml of a 10% Chlorox, 0.1% SDS solution and then rinsed 3 times with sterile deionized water. Leaf disks, 6 mm in diameter, were prepared from whole leaves using a sterile paper punch.
Leaf disks were inoculated by submerging them for several minutes in 20 ml of a 1:10 dilution of an overnight Agrobacterium culture carrying the plasmid GCKNT13. Agrobacterium cultures were started by inoculating 10 ml of YEB broth with a single bacterial colony removed form a R-agar plate. The culture was grown for approximately 17-20 hours in 18 mm glass culture tubes in a New Brunswick platform shaker maintained at 28°C.
After inoculation, the leaf disks were placed in petri dishes containing CN agar medium. The dishes were sealed with paraflm and incubated under mixed fluorescent and "Gro and Sho" plant light (General Electric) for 2-3 days in a culture room maintained at approximately 25°C.
[…] Cefotaxime was kept as a frozen 100 mg/ml stock solution and added aseptically (filter sterilized through a 0.45 µm filter) to the media after autoclaving. A fresh kanamycin stock (50 mg/ml) was made for each use and was filter sterilized into the autoclaved media.
Leaf disks were incubated under the growth conditions described above for 3 weeks and then transferred to fresh media of the same composition.
Root formation on selective and non-selective media was recorded within 3 weeks.
Callus growth on selective and non-selective media was recorded within 3 weeks.

[2] = test system: Brassica napus callus tissue; assay: Kanamycin selection of Brassica napus hypocotyl explants; assay type: cell-based, Brassica napus cv. Olga; details: of 100 wound sites; kanamycin 100 mg/L
melon callus = assay: Kanamycin selection of melon cotyledon explants; assay type: cell-based, Cucumis melo cv. Amarillo Oro; details: kanamycin at 100µm/l
[3] = test system: Cells of N.tabacum cv. W38; assay: Level of chlorsulfuron resistance in transformed N. tabacum colonies; assay type: cell-based
calli of B. vulgaris = assay: Chlorsulfuron resistance of sugarbeet calli; assay type: cell-based, Beta vulgaris 87193
Excerpt: Selection for transformed plant cells was applied as follows. […] The number of resistant colonies was counted after 20-30 days. More than one may be observed at each wound. Transformants were excised as follows. Callus was removed from the wound/explant with a surgical blade and cultured independently on fresh selective media. Some Agrobacterium can escape from counter-selection. Additional washes in cefotaxime containing liquid media are possible, as is repeated transfer to cefotaxime containing agar solidified plates. […]

Brassica napus = Brassica napus plants sprayed with chlorsulfuron; assay type: in vivo, Brassica napus cv. Olga
ALS [4] = assay: ALS assay, wild type Brassica napus; assay type: biochemical
Experimental: Keep on ice. • 2. […] 16K rpm, 4°C. • 4. […] Incubate on ice for 30 minutes. • 6. […] Decant supernatant. • 7. Resuspend pellet in 1 ml cold column buffer. • 8. […] Let this run through column. • 9. Elute proteins with 2X volume of extract loaded. […] Incubate reaction for 1 hour, 30°C. • 12. […] Spin in microfuge 5 minutes. • 13. […] Read at OD 530.

tobacco callus [5] = assay: Growth of tobacco mutant callus (C3, S4, Hra) on herbicide; assay type: cell-based, Nicotiana tabacum var. Xanthi; details: Hra cell line
Experimental: (§1) Callus cultures of sensitive tobacco (Nicotiana tabacum var. Xanthi) were exposed to sulfometuron methyl at 2 ppb according to the method described by Chaleff, U.S. 4,443,971. […] Plants were regenerated from Hra callus cultures. […] ALS activity in extracts of leaves of wild type and homozygous Hra mutant tobacco plants was determined.

ALS [6] = assay type: biochemical, Nicotiana tabacum; details: C3 and S4 lines
Experimental: as §1

Compound: NC[C@H]1O[C@H](O[C@H]2[C@H](O)[C@@H](O[C@H]3O[C@H](CO)[C@@H](O)[C@H](N)[C@H]3O)[C@H](N)C[C@@H]2N)[C@H](O)[C@@H](O)[C@@H]1O [Kanamycin]
- Number of transformed shoot explants producing callus on selective and non-selective media (tobacco callus [1]; EXP. #1, GV3850): 0/10
- Number of transformed shoot explants producing callus on selective and non-selective media (tobacco callus [1]; EXP. #1, GVKK): 8/13
- Number of transformed shoot explants producing callus on selective and non-selective media (tobacco callus [1]; EXP. #1, GVKNT13): 53/62
- Number of transformed shoot explants producing callus on selective and non-selective media (tobacco callus [1]; Exp. #2, GV3850): 0/25
- Number of transformed shoot explants producing callus on selective and non-selective media (tobacco callus [1]; Exp. #2, GVKK): 16/23
- Number of transformed shoot explants producing callus on selective and non-selective media (tobacco callus [1]; Exp. #2, GVKNT13): 81/102
- wound sites that developed callus tissue resistant to kanamycin [2]: 20
- explants that developed callus resistant to kanamycin (melon callus): Approximately 70%

Compound: COc1nc(C)nc(NC(=O)NS(=O)(=O)c2ccccc2Cl)n1 [chlorsulfuron]
- chlorsulfuron resistance conferred in transformed tobacco calluses ([3]; 8.3 kb DNA fragment (SURB-Hra)): up to 2000 ppb
- concentration colonies could tolerate ([3]; colonies derived from co-cultivation with A. tumefaciens containing pAGS152): up to 2000 ppb
- concentration at which colonies are sensitive ([3]; wild type colonies): 2 ppb
- level of chlorsulfuron resistance in calli of B. vulgaris (calli of B. vulgaris; 87193/0 (untransformed), Chlorsulfuron 10 ppb): 0/15
- level of chlorsulfuron resistance in calli of B. vulgaris (calli of B. vulgaris; 87193/0 (untransformed), Chlorsulfuron 30 ppb): 0/15
- level of chlorsulfuron resistance in calli of B. vulgaris (calli of B. vulgaris; 87193/152 (transformed, pAGS152), Chlorsulfuron 10 ppb): 15/15
- level of chlorsulfuron resistance in calli of B. vulgaris (calli of B. vulgaris; 87193/152 (transformed, pAGS152), Chlorsulfuron 30 ppb): 15/15
- level of chlorsulfuron resistance in calli of B. vulgaris (calli of B. vulgaris; 87193/152 (transformed, pAGS152), Chlorsulfuron 100 ppb): 15/15
- level of chlorsulfuron resistance in calli of B. vulgaris (calli of B. vulgaris; 87193/152 (transformed, pAGS152), Chlorsulfuron 300 ppb): 15/15
- level of chlorsulfuron resistance in calli of B. vulgaris (calli of B. vulgaris; 87193/152 (transformed, pAGS152), Chlorsulfuron 1000 ppb): 15/15
- level of chlorsulfuron resistance in calli of B. vulgaris (calli of B. vulgaris; 87193/152 (transformed, pAGS152), Chlorsulfuron 3000 ppb): 3/15
- level of chlorsulfuron resistance in calli of B. vulgaris (calli of B. vulgaris; 87193/152 (transformed, pAGS152), Chlorsulfuron 10000 ppb): 0/15
- growth of plants sprayed with chlorsulfuron (Brassica napus; Ro #1, 0.3 ppm): ++
- growth of plants sprayed with chlorsulfuron (Brassica napus; Ro #1, 1 ppm): ++
- growth of plants sprayed with chlorsulfuron (Brassica napus; Ro #1, 3 ppm): ++
- growth of plants sprayed with chlorsulfuron (Brassica napus; Ro #1, 10 ppm): +
- growth of plants sprayed with chlorsulfuron (Brassica napus; Ro #2, 0.3 ppm): ++
- growth of plants sprayed with chlorsulfuron (Brassica napus; Ro #2, 1 ppm): +
- growth of plants sprayed with chlorsulfuron (Brassica napus; Ro #2, 3 ppm): -
- growth of plants sprayed with chlorsulfuron (Brassica napus; Ro #2, 10 ppm): -
- growth of plants sprayed with chlorsulfuron (Brassica napus; Ro #3, 0.3 ppm): ++
- growth of plants sprayed with chlorsulfuron (Brassica napus; Ro #3, 1 ppm): +
- growth of plants sprayed with chlorsulfuron (Brassica napus; Ro #3, 3 ppm): +
- growth of plants sprayed with chlorsulfuron (Brassica napus; Ro #3, 10 ppm): -
- growth of plants sprayed with chlorsulfuron (Brassica napus; Ro #4, 0.3 ppm): ++
- growth of plants sprayed with chlorsulfuron (Brassica napus; Ro #4, 1 ppm): +
- growth of plants sprayed with chlorsulfuron (Brassica napus; Ro #4, 3 ppm): -
- growth of plants sprayed with chlorsulfuron (Brassica napus; Ro #4, 10 ppm): -
- growth of plants sprayed with chlorsulfuron (Brassica napus; Ro #5, 0.3 ppm): +++
- growth of plants sprayed with chlorsulfuron (Brassica napus; Ro #5, 1 ppm): ++
- growth of plants sprayed with chlorsulfuron (Brassica napus; Ro #5, 3 ppm): ++
- growth of plants sprayed with chlorsulfuron (Brassica napus; Ro #5, 10 ppm): +
- growth of plants sprayed with chlorsulfuron (Brassica napus; untransformed, 0.3 ppm): ++
- growth of plants sprayed with chlorsulfuron (Brassica napus; untransformed, 1 ppm): +
- growth of plants sprayed with chlorsulfuron (Brassica napus; untransformed, 3 ppm): -
- growth of plants sprayed with chlorsulfuron (Brassica napus; untransformed, 10 ppm): -
- Percent Uninhibited ALS Activity (ALS [4]; 1ppb): 86.6%
- Percent Uninhibited ALS Activity (ALS [4]; 10ppb): 28.2%
- Percent Uninhibited ALS Activity (ALS [4]; 100ppb): 10.1%
- Percent Uninhibited ALS Activity (ALS [4]; 1000ppb): 7.6%
- cross resistance of cell line (tobacco callus [5]): cross resistant
- resistance of ALS enzyme activity compared with ALS from wild type (ALS [6]): one-hundred fold
